How the values were obtained:
THP-1 cells [1] = assay: MCP-1 mediated calcium flux in THP-1 cells; format: cell-based, human; details: stimulation of THP-1 cells with hMCP-1; read-out: EC50 of rise in [Ca2+]i
Description: The human monocytic cell line THP-1 as grown in a synthetic cell culture medium RPMI 1640 supplemented with 10% foetal calf serum, 6 mM glutamine and Penicillin-Streptomycin (at 50 μg streptomycin/ml, Gibco BRL). THP-1 cells were washed in HBSS (lacking Ca^2+ and Mg^2+)+1 mg/ml BSA and resuspended in the same buffer at a density of 3×10^6 cells/ml. The cells were then loaded with […] FURA-2/AM for 30 min at 37° C., washed twice in HBSS, and resuspended at 1×10^6 cells/mil. THP-1 cell suspension (0.9 ml) was added to a 5 ml disposable cuvette containing a magnetic stirrer bar and 2.1 ml of prewarmed (37° C.) HBSS containing 1 mg/ml BSA, 1 mM MgCl, and 2 mM CaCl2. The cuvette was placed in a fluorescence spectrophotometer (Perkin Elmer, Norwalk. Conn.) and preincubated for 4 min at 37° C. with stirring. Fluorescence was recorded over 70 sec and cells were stimulated by addition of hMCP-1 to the cuvette after 10 sec. [Ca^2+]i was measured by excitation at 340 nm and 380 nm alternately and subsequent measurement of the intensity of the fluorescence emission at 510 nm.
where the Kd for FURA-2 Ca^2+ complex at 37° C. was taken to be 224 nm. […]

MCP-1 receptor B (CCR2B) = biological target: T1, MCP-1 receptor B (CCR2B) (Homo sapiens, UniProt P41597); assay: hMCP-1 receptor binding assay, 125I MCP-1 on CHO-CCR2B cell membranes
T1 construct: expressed in transfected cells; host or cells: CHO-K1 (clone 7, CHO-CCR2B), membrane fragments
T1 sequence (P41597 1-360 isoform P41597-2): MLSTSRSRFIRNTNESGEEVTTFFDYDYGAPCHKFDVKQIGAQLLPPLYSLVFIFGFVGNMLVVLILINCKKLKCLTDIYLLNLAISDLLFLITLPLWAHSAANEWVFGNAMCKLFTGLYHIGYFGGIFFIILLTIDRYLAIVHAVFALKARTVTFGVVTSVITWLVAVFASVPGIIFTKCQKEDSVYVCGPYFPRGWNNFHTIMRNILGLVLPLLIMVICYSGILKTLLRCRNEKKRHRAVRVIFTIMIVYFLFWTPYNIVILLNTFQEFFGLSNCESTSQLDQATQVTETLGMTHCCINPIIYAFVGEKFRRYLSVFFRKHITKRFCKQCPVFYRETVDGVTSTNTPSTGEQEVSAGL
From the text: The MCP-1 receptor B (CCR2B) cDNA was cloned by PCR from THP-1 cell RNA using suitable oligonucleotide primers based on the published MCP-1 receptor sequences (Charo et al., 1994, Proc. Natl. Acad. Sci. USA, 91, 2752). The resulting PCR products were cloned into vector PCR-II™ (InVitrogen, San Diego, Calif.). Error free CCR2B cDNA was subcloned as a Hind III-Not I fragment into the eukaryotic expression vector pCDNA3 (InVitrogen) to generate pCDNA3/CC-CKR2A and pCDNA3/CCR2B respectively.
Linearised pCDNA3/CCR2B DNA was transfected into CHO-K1 cells by calcium phosphate precipitation (Wigler et al., 1979, Cell, 16, 777). Transfected cells were selected by the addition of Geneticin Sulphate (G418, Gibco BRL) at 1 mg/ml, 24 hours after the cells had been transfected. Preparation of RNA and Northern blotting were carried out as described previously (Needham et al., 1995, Prot. Express. Purific., 6. 134). CHO-K1 clone 7 (CHO-CCR2B) was identified as the highest MCP-1 receptor B expressor.
CHO-CCR2B cells were grown in DMEM supplemented with 10% foetal calf serum, 2 mM glutamine. 1×Non-Essential Amino Acids. 1×Hypoxanthine and Thymidine Supplement and Penicillin-Streptomycin (at 50 μg streptomycin/ml, Gibco BRL). Membrane fragments were prepared using cell lysis/differential centrifugation methods as described previously (Siciliano et al., 1990, J. Biol. Chem., 265, 19658). […]

THP-1 cells [2] = assay: hMCP-1 mediated chemotaxis of THP-1 cells; format: cell-based, human; details: biphasic response
Description: In vitro chemotaxis assays were performed using the human monocytic cell line THP-1. Cell migration through polycarbonate membranes was measured by enumerating those passing through either directly by Coulter counting or indirectly by use of a colourimetric viability assay measuring the cleavage of a tetrazolium salt by the mitochondrial respiratory chain (Scudiero D. A. et al. 1988, Cancer Res., 48, 4827-4833).
Chemoattractants were introduced into a 96-well microtitre plate which forms the lower well of a chemotaxis chamber fitted with a PVP-free 5 μm poresize polycarbonate adhesive framed filter membrane (NeuroProbe MB series, Cabin John, Md. 20818. USA) according to the manufacturer's instructions. […] The plate was incubated at 37° C. for 3 h and the absorbance of the soluble formazan product was read on a microtitre plate reader at 450 nm. The data was input into a spreadsheet, corrected for any random migration in the absence of chemoattractant and the average absorbance values, standard error of the mean, and significance tests were calculated. hMCP-1 induced concentration dependent cell migration with a characteristic biphasic response, maximal […]. […]

hMCP-1 receptor = biological target: T2, hMCP-1 receptor (Homo sapiens, UniProt P41597); assay: 125I MCP-1 binding to human peripheral blood mononuclear cells (PBMCs); details: 100 pM 125I-labeled MCP-1, 37° C. 60 minutes
T2 construct: endogenous in cells; host or cells: human PBMCs from fresh donor blood (whole cells)
T2 sequence (P41597 1-360 isoform P41597-2): T1 sequence (P41597 1-360 isoform P41597-2)
Description: Fresh human blood (200 ml) was obtained from volunteer donors, collected into sodium citrate anticoagulant to give a final concentration of 0.38%. The blood was mixed with Sedimentation Buffer and incubated at 37° C. for 20 minutes. The supernatant was collected and centrifuged at 1700 rpm for 5 minutes (Sorvall RT6000D). The pellet obtained was resuspended in 20 ml RPMI/BSA (1 mg/ml) and 4×5 mls of cells were carefully layered over 4×5 mls of Lymphoprepa (Nycomed) in 15 ml centrifuge tubes. Tubes were spun at 1700 rpm for 30 minutes (Sorvall RT6000D) and the resultant layer of cells was removed and transferred to 50 ml Falcon tubes. The cells were washed twice in Lysis Buffer to remove any remaining red blood cells followed by 2 washes in RPMI/BSA. Cells were resuspended in 5 mls of Binding Buffer. Cell number was measured on a Coulter counter and additional binding buffer was added to give a final concentration of 1.25×10^7 PBMCs/ml. […]
Test compound potency was determined by assay in duplicate using six point dose-response curves and IC50 concentrations were determined.

Row | Molecule | EC50 (THP-1 cells [1]) [nM] | IC50 (MCP-1 receptor B (CCR2B); cold competition with 100 pM 125I-labeled MCP-1, CHO-CCR2B membrane fragments) [nM] | Kd (MCP-1 receptor B (CCR2B); equilibrium binding, CHO-CCR2B membrane fragments) [nM] | concentration of maximal cell migration (THP-1 cells [2]) | IC50 (hMCP-1 receptor) [nM]
1 | MCP-1: Human Monocyte Chemoattractant Protein-1, a C—C chemokine, ligand of the MCP-1 (CCR2) receptor | ~2 | 0.11 | 0.12 | 0.5-1.0 nm | –
2 | CS(=O)(=O)NCCNC(=O)c1cccc2c1cc(C(=O)O)n2Cc1ccc(Cl)c(Cl)c1 [Compound 9] | – | – | – | – | 640
